Laboratory results: patent publication US20120010075A1 (priority 2009, published 2012)
Like-named read-outs stand apart in the source and are kept apart here.

Assays:
[1] = system: Leptosphaeria nodorum (LEPTNO); experiment: In vitro fungitoxicity of hydrazones with and without copper towards Leptosphaeria nodorum (Example 26); type: cell-based; settings: 72 h at 25° C.; for inhibition of growth at 0.05 µg/mL: Parastagonospora nodorum, 72 h, copper-minus medium, read-out: LEPTNO % Inhn. Minus Copper Observed
Phytophthora infestans = type: in vivo, Phytophthora infestans on tomato; settings: applied 24 h before inoculation, assessed 7 days after inoculation
[2] = system: Leptosphaeria nodorum (LEPTNO); experiment: Isolated metal-hydrazone complexes versus parent hydrazones, in vitro, Leptosphaeria nodorum (Example 31, Table 7); type: cell-based; settings: Parastagonospora nodorum; 0.1 μg/mL; copper-minus medium; 72 h
Phytophthora capsici = experiment: In vitro fungitoxicity of hydrazones with and without copper towards Phytophthora capsici (Example 28, Table 3); type: cell-based; settings: 0.050 μg/mL, 48 h; for % Inhn Plus copper Observed: copper-plus AS medium (CuCl2, 50 μM); for inhibition of growth at 0.05 µg/mL: Phytophthora capsici, copper-minus AS medium, read-out: % Inhn Minus copper Observed
Ustilago maydis = experiment: In vitro fungitoxicity of hydrazones with and without copper towards Ustilago maydis (Example 29, Table 4); type: cell-based; settings: 1 μg/mL, 48 h; for % Inhn. Plus copper Observed: copper-plus medium (CuCl2, 10 μM); for inhibition of growth at 1 µg/mL: Mycosarcoma maydis, copper-minus medium, read-out: % Inhn. Minus copper Observed
[3] = system: Septoria tritici isolate USA-184; experiment: In vitro fungitoxicity of hydrazones with and without copper towards Septoria tritici (Example 30, Table 5); type: cell-based; settings: Zymoseptoria tritici, 0.05 μg/mL
[4] = test compound Concn. 0.05 μg/mL
[5] = copper-plus medium (CuCl2 10 μM), test compound Concn. 0.05 μg/mL
[6] = hydrazone 50 ppm with 50 μM CuCl2.2H2O, tomato late blight
[7] = compound 0.05 μg/mL, copper-plus medium (CuCl2.2H2O)
[8] = hydrazone 50 ppm + 50 μM CuCl2.2H2O, tomato
[9] = Colby formula, CuCl2, read-out: % Inhibition Plus copper Predicted
[10] = copper-minus medium, 90 h, read-out: % Inhibition Minus copper Observed
[11] = copper-plus medium CuCl2, 90 h, read-out: % Inhibition Plus copper Observed

Row | Compound | inhibition of growth at 0.05 µg/mL [1, 4] | LEPTNO % Inhn. Plus Copper Observed [1, 5] | TLB % Control (Phytophthora infestans; [6]) | inhibition at 0.1 µg/mL [2] | melting point | inhibition of growth at 0.05 µg/mL ([1]; compound 0.05 μg/mL) | LEPTNO % Inhn. Plus Copper Observed [1, 7] | TLB % Control (Phytophthora infestans; [8]) | % Inhn Plus copper Observed (Phytophthora capsici) | inhibition of growth at 0.05 µg/mL (Phytophthora capsici) | % Inhn. Plus copper Observed (Ustilago maydis) | inhibition of growth at 1 µg/mL (Ustilago maydis) | inhibition at 0.05 µg/mL [3, 9] | inhibition at 0.05 µg/mL [3, 10] | inhibition at 0.05 µg/mL [3, 11]
1 | COc1cccc(/C(C)=N/NC(=O)c2ccc(Cl)cc2)c1O [Example 305] | 0.5% | 98.3% | 61.0% | 27.1% | 168 to 170 °C | – | – | – | – | – | – | – | – | – | –
2 | C/C(=N\NC(=O)c1ccc(C)cc1)c1cc(Cl)cc(Cl)c1O [Example 279] | – | – | – | 19.9% | 262 to 264 °C | 5.1% | 98.6% | 96.0% | – | – | – | – | – | – | –
3 | C/C(=N\NC(=O)c1ccccc1Cl)c1cc(Cl)cc(Cl)c1O [Example 67] | – | – | – | 4.2% | – | 2.6% | 91.8% | 75.0% | – | – | – | – | – | – | –
4 | O=C(N/N=C/c1cc(Cl)ccc1O)c1ccc(Cl)cc1 [Example 172] | – | – | – | 28.7% | – | 13.2% | 97.9% | 27.1% | – | – | – | – | – | – | –
5 | O=C(N/N=C/c1cc(Cl)cc(Br)c1O)c1ccc(Cl)cc1 [Example 159] | – | – | – | 27.4% | – | 11.4% | 98.5% | 91.9% | – | – | – | – | – | – | –
6 | Cc1ccc(C(=O)N/N=C/c2ccc(Cl)c(Cl)c2O)c(O)c1 [Example 364] | 8.4% | 95.8% | 97.0% | – | 271 to 278 °C | – | – | – | 23.2% | 0% | 92.9% | 65.5% | 22.4% | 22.4% | 93.7%
7 | O=C(N/N=C/c1cc(Cl)cc(Br)c1O)c1ccccc1 [Example 151] | – | – | – | 30.9% | – | 11.8% | 97.6% | 83.0% | – | – | – | – | – | – | –
8 | O=C(N/N=C/c1ccc(Cl)cc1O)c1ccccc1 [Example 233] | – | – | – | 8.4% | – | 5.6% | 98.1% | 88.1% | – | – | – | – | – | – | –
9 | O=C(N/N=C/c1cc(C(F)(F)F)cc(Cl)c1O)c1ccccc1 [Example 275] | – | – | – | – | 216 to 222 °C | 0% | 98.4% | 79.7% | 91.2% | 0% | 92.2% | 0% | 16.2% | 16.2% | 93.5%
10 | O=C(N/N=C/c1cccc(C(F)(F)F)c1O)c1ccccc1O [Example 351] | 7.7% | 96.1% | 100.0% | – | 230 to 234 °C | – | – | – | 87.9% | 0% | 97.7% | 27.1% | 44.4% | 44.4% | 97.1%
11 | O=C(N/N=C/c1cccc(Cl)c1O)c1cccc(Cl)c1 [Example 427] | 26.1% | 97.9% | 98.0% | – | 174 to 178 °C | – | – | – | 88.6% | 9.1% | 89.3% | 34.3% | 43.8% | 43.8% | 96.7%
12 | O=C(N/N=C/c1c(C(F)(F)F)ccc(Cl)c1O)c1ccccc1O [Example 455] | 16.7% | 100.0% | 100.0% | – | 278 to 280 °C | – | – | – | 30.8% | 0% | 96.0% | 0% | 27.5% | 27.5% | 92.4%
13 | O=C(N/N=C/c1c(O)cccc1Cl)c1ccc([N+](=O)[O-])cc1 [Example 405] | 2.8% | 96.2% | 98.0% | – | > 300 °C | – | – | – | 85.9% | 0.6% | 90.0% | 9.6% | 18.8% | 18.8% | 89.9%
14 | O=C(N/N=C/c1cc(Cl)cc(C(F)(F)F)c1O)c1ccccc1O [Example 384] | 28.6% | 95.8% | 100.0% | – | 258 to 260 °C | – | – | – | 71.1% | 0% | 96.6% | 13.6% | 57.5% | 57.5% | 97%
15 | C/C(=N\NC(=O)c1ccc(Cl)cc1)c1cc(F)cc(F)c1O [Example 578] | 7.2% | 98.0% | 100.0% | – | 276 to 280 °C | – | – | – | 90.4% | 2.8% | 93.8% | 47.4% | 26.7% | 26.7% | 90.7%
16 | O=C(N/N=C/c1ccc(Cl)cc1O)c1ccc(Cl)cc1 [Example 392] | 15.8% | 97.9% | 46.0% | 22.8% | – | – | – | – | – | – | – | – | – | – | –
17 | O=C(N/N=C/c1cc(Cl)cc(Cl)c1O)c1ccc(Cl)cc1 [Example 68] | – | – | – | 7.1% | – | 15.8% | 97.0% | 75.9% | – | – | – | – | – | – | –
18 | O=C(N/N=C/c1cc(Cl)cc(Br)c1O)c1ccccc1O [Example 195] | – | – | – | 21.7% | – | 19.2% | 97.9% | 89.5% | – | – | – | – | – | – | –
19 | O=C(N/N=C/c1cc(C(F)(F)F)ccc1O)c1ccccc1O [Example 443] | 14.6% | 100.0% | 83.0% | – | 277 to 281 °C | – | – | – | 91.2% | 2.4% | 35.3% | 10.2% | 5.8% | 5.8% | 92%
